Patent US9067897B2, “2,4-Diaminoquinazolines for spinal muscular atrophy” (Families of Spinal Muscular Atrophy, priority 2004, dated 2015)
pEC50: −log10 of the molar value. Structures can show the parent of a compound that is named as a salt.

Test system: SMN2 promoter
Experiment: SMN2 promoter assay (β-lactamase reporter) in NSC-34 cells
Format: cell-based, mouse
Settings: SMN2 promoter driving β-lactamase, 12 point dose curve, average of 3-6 dose curve experiments
Source text: All compounds were screened using an in vitro based SMN2 promoter assay. We used NSC-34 cells, a hybrid cell line between mouse spinal cord cells and mouse neuroblastoma cells. NSC-34 cells harbor an expression plasmid containing a 3.4 kb promoter fragment of the SMN2 gene driving β-lactamase expression.
[…] […] CCF2-AM diffuses across the plasma membrane and is converted into an active β-lactamase substrate by cytoplasmic esterase. […] The fold induction is proportional to the extent of β-lactamase produced and in turn proportional to SMN2 promoter activation for a given compound relative to vehicle (DMSO) control. […] These values are used to rank activities of the compounds and derive structure activity relationship.

Row | SMILES | pEC50 (Mus musculus) | pEC50
1 | CC(Oc1cccc2nc(N)nc(N)c12)c1nccs1 (stereo not shown) [Example 58, 5-(1-Thiazol-2-ylethoxy)quinazoline-2,4-diamine] | > 6.00 | 
2 | Nc1nc(N)c2c(OCc3ccc(I)cc3)cccc2n1 [Example 4, 5-(4-Iodobenzyloxy)quinazoline-2,4-diamine] | > 6.00 | 
3 | Nc1nc(N)c2c(OC(c3ccccc3)c3ccccc3)cccc2n1 [Example 52, 5-Benzhydryloxyquinazoline-2,4-diamine] | > 6.00 | 
4 | Cc1cccc(COc2cccc3nc(N)nc(N)c23)c1 [Example 10, 5-(3-Methylbenzyloxy)quinazoline-2,4-diamine] | > 6.00 | 
5 | Nc1nc(N)c2c(OCc3cccc(Cl)c3)cccc2n1 [Example 5, 5-(3-Chlorobenzyloxy)quinazoline-2,4-diamine] | > 6.00 | 
6 | Nc1nc(N)c2c(OCc3ccoc3)cccc2n1 [Example 34, 5-(Furan-3-ylmethoxy)quinazoline-2,4-diamine] | > 6.00 | 
7 | Nc1nc(N)c2c(OCc3ccccn3)cccc2n1 [Example 36, 5-(Pyridin-2-ylmethoxy)Quinazoline-2,4-diamine] | > 6.00 | 
8 | CN1CCCC(COc2cccc3nc(N)nc(N)c23)C1 (stereo not shown) [Example 20, 5-(1-Methylpiperidin-3-ylmethoxy)quinazoline-2,4-diamine] | > 6.00 | 
9 | Nc1nc(N)c2c(OCC3CCCC3)cccc2n1 [Example 18, 5-(Cyclopentylmethoxy)quinazoline-2,4-diamine] | > 6.00 | 
10 | CC(Oc1cccc2nc(N)nc(N)c12)c1ccccc1 (stereo not shown) [Example 12, 5-(1-Phenylethoxy)quinazoline-2,4-diamine] | > 6.00 | 
11 | Nc1nc(N)c2c(COc3ccc(F)cc3F)cccc2n1 [Example 147, 5-(2,4-Difluorophenoxymethyl)quinazoline-2,4-diamine] | > 6.00 | 
12 | CC1=NOC(COc2cccc3nc(N)nc(N)c23)C1 (stereo not shown) [Example 33, 5-(3-Methyl-4,5-dihydroisoxazol-5-ylmethoxy)quinazoline-2,4-diamine] | 5.30 to 6.00 | 
13 | CC(Oc1cccc2nc(N)nc(N)c12)c1cccc(I)c1 (stereo not shown) [Example 63, 5-[1-(3-Iodophenyl)-ethoxy]-quinazoline-2,4-diamine] | > 6.00 | 
14 | Cc1ccc(Cc2cccc3nc(N)nc(N)c23)cc1 [Example 23, 5-(4-Methylbenzyl)quinazoline-2,4-diamine] | 5.30 to 6.00 | 
15 | Nc1nc(N)c2c(OCc3ccc(Br)cc3)cccc2n1 [Example 62, 5-(4-Bromobenzyloxy)-quinazoline-2,4-diamine] | > 6.00 | 
16 | Cc1ccc(CCOc2cccc3nc(N)nc(N)c23)cc1 [Example 8, 5-(2-p-Tolylethoxy)quinazoline-2,4-diamine] | > 6.00 | 
17 | CC(Oc1cccc2nc(N)nc(N)c12)c1cccc(Cl)c1 (stereo not shown) [Example 28, 5-[1-(3-Chlorophenyl)ethoxy]quinazoline-2,4-diamine] | > 6.00 | 
18 | C=CCOCCOc1cccc2nc(N)nc(N)c12 [Example 19, 5-(2-Allyloxyethoxy)quinazoline-2,4-diamine] | > 6.00 | 
19 | Nc1nc(N)c2c(OCC3CCCCC3)cccc2n1 [Example 17, 5-(Cyclohexylmethoxy)quinazoline-2,4-diamine] | 5.30 to 6.00 | 
20 | Nc1nc(N)c2c(OCCc3ccccc3)cccc2n1 [Example 37, 5-Phenethyloxyquinazoline-2,4-diamine] | > 6.00 | 
21 | CC(C)(C)C(Oc1cccc2nc(N)nc(N)c12)c1ccc(Cl)cc1 (stereo not shown) [Example 51, 5-[1-(4-Chlorophenyl)-2,2-dimethylpropoxy]quinazoline-2,4-diamine] | 5.00 to 5.30 | 
22 | Cc1cc(COc2cccc3nc(N)nc(N)c23)no1 [Example 53, 5-(5-Methylisoxazol-3-ylmethoxy)quinazoline-2,4-diamine] | > 6.00 | 
23 | CC(Oc1cccc2nc(N)nc(N)c12)c1ccccn1 (stereo not shown) [Example 57, 5-(1-Pyridin-2-ylethoxy)quinazoline-2,4-diamine] | > 6.00 | 
24 | Nc1nc(N)c2c(OCC3CC=CCC3)cccc2n1 (stereo not shown) [Example 13, 5-(Cyclohex-3-enylmethoxy)quinazoline-2,4-diamine] | > 6.00 | 
25 | CCCC(Oc1cccc2nc(N)nc(N)c12)C1CCCCC1 (stereo not shown) [Example 125, 5-(1-Cyclohexyl-butoxy)-quinazoline-2,4-diamine] | > 6.00 | 

Other lines, results leading:

Row | pEC50 (Mus musculus) | pEC50 | SMILES
26 | > 6.00 |  | Nc1nc(N)c2c(OCC3CCN(C(=O)c4cccc(Cl)c4)CC3)cccc2n1 [Example 134, (3-Chlorophenyl)-[4-(2,4-diamino-quinazolin-5-yloxymethyl)-piperidin-1-yl]-methanone]
27 | > 6.00 |  | CC(Oc1cccc2nc(N)nc(N)c12)C1CCCCC1 (stereo not shown) [Example 126, 5-(1-Cyclohexyl-ethoxy)-quinazoline-2,4-diamine]
28 | 5.30 to 6.00 |  | C[C@@H](Oc1cccc2nc(N)nc(N)c12)c1cccc2ccccc12 [Example 110, 5-((R)-1-Naphthalen-1-yl-ethoxy)-quinazoline-2,4-diamine]
29 | > 6.00 |  | CC1(C)[C@H]2CC[C@H](COc3cccc4nc(N)nc(N)c34)[C@@H]1C2 [Example 152, 5-((1S,2S,5S)-6,6-Dimethylbicyclo[3.1.1]hept-2-ylmethoxy) quinazoline-2,4-diamine]
30 | > 6.00 |  | Nc1nc(N)c2c(OC(CO)c3ccc4c(c3)OCO4)cccc2n1 (stereo not shown) [Example 170, 2-Benzo[1,3]dioxol-5-yl-2-(2,4-diaminoquinazolin-5-yloxy)ethanol hydrochloride]
31 | > 6.00 |  | Nc1nc(N)c2c(OCC3CC4C=CC3C4)cccc2n1 (stereo not shown) [Example 122, 5-(Bicyclo[2.2.1]hept-5-en-2-ylmethoxy)-quinazoline-2,4-diamine]
32 | > 6.00 |  | C[C@H](Oc1cccc2nc(N)nc(N)c12)c1ccc2ccccc2c1 [Example 109, 5-((S)-1-Naphthalen-2-yl-ethoxy)-quinazoline-2,4-diamine]
33 | > 6.00 |  | Nc1nc(N)c2c(OCc3ccccc3Br)cccc2n1 [Example 74, 5-(2-Bromo-benzyloxy)-quinazoline-2,4-diamine]
34 | > 6.00 |  | C[C@H](Oc1cccc2nc(N)nc(N)c12)c1cccc(Cl)c1 [Example 162, 5-[(S)-1-(3-Chlorophenyl)ethoxy]quinazolin-2,4-diamine]
35 | > 6.00 |  | Nc1nc(N)c2c(OCC(O)c3ccc(Cl)cc3)cccc2n1 (stereo not shown) [Example 160, 1-(4-Chlorophenyl)-2-(2,4-diaminoquinazolin-5-yloxy)ethanol]
36 | > 6.00 |  | Nc1nc(N)c2c(OCC3CCN(C(=O)c4ccc(Cl)cc4)CC3)cccc2n1 [Example 123, (4-Chlorophenyl)-[4-(2,4-diamino-quinazolin-5-yloxymethyl)-piperidin-1-yl]-methanone]
37 | > 6.00 |  | COc1ccc(Cl)cc1COc1cccc2nc(N)nc(N)c12 [Example 88, 5-(5-Chloro-2-methoxybenzyloxy)quinazoline-2,4-diamine]
38 | > 6.00 |  | Nc1nc(N)c2c(OCc3cccc(I)c3)cccc2n1 [Example 77, 5-(3-Iodo-benzyloxy)-quinazoline-2,4-diamine]
39 | > 6.00 |  | Nc1nc(N)c2c(OCC(CO)c3ccc(Cl)cc3)cccc2n1 (stereo not shown) [Example 69, 2-(4-Chlorophenyl)-3-(2,4-diaminoquinazolin-5-yloxy)-propan-1-ol hydrochloride]
40 | > 6.00 |  | Nc1nc(N)c2c(OCc3cc(F)cc(F)c3F)cccc2n1 [Example 83, 5-(2,3,5-Trifluorobenzyloxy)-quinazoline-2,4-diamine]
41 | > 6.00 |  | Nc1nc(N)c2c(OCc3cc(F)cc(F)c3)cccc2n1 [Example 79, 5-(3,5-Difluorobenzyloxy)quinazoline-2,4-diamine]
42 |  | 5.30 to 6.00 | COc1cccc2c1OCC2Oc1cccc2nc(N)nc(N)c12 (stereo not shown) [Example 72, 5-(7-Methoxy-2,3-dihydrobenzofuran-3-yoloxy)-quinazoline-2.4-diamine]
43 | > 6.00 |  | Nc1nc(N)c2c(OCC3CC4CC3C(O)C4O)cccc2n1 (stereo not shown) [Example 131, 5-(2,4-Diamino-quinazolin-5-yloxymethyl)-bicyclo[2.2.1]heptane-2,3-diol]
44 | 5.30 to 6.00 |  | CC(Oc1cccc2nc(N)nc(N)c12)c1cccc2ccccc12 (stereo not shown) [Example 111, 5-(1-Naphthalen-1-yl-ethoxy)-quinazoline-2,4-diamine]
45 |  | > 6.00 | Nc1nc(N)c2c(OC3C4CC5CC(C4)CC3C5)cccc2n1 (stereo not shown) [Example 119, 5-(Adamanta-2-yloxy)quiazoline-2,4-diamine]
46 | > 6.00 |  | COCC(Oc1cccc2nc(N)nc(N)c12)c1ccc(Cl)cc1 (stereo not shown) [Example 114, 5-[1-(4-Chlorophenyl)-2-methoxyethoxy]-quinazoline-2,4-diamine]
47 | > 6.00 |  | Nc1nc(N)c2c(OCc3cc(Cl)cc(Cl)c3)cccc2n1 [Example 106, 5-(3,5-Dichlorobenzyloxy)quinazoline-2,4-diamine]
48 | > 6.00 |  | Nc1nc(N)c2c(OCC3CCN(C(=O)c4ccccc4Cl)CC3)cccc2n1 [Example 133, (2-Chlorophenyl)-[4-(2,4-diamino-quinazolin-5-yloxymethyl)-piperidin-1-yl]-methanone]
49 | > 6.00 |  | COC(COc1cccc2nc(N)nc(N)c12)c1ccc(Cl)cc1 (stereo not shown) [Example 165, 5-[2-(4-Chlorophenyl)-2-methoxyethoxy]quinazoline-2,4-diamine]
50 | > 6.00 |  | Nc1nc(N)c2c(OCc3cccc(Br)c3)cccc2n1 [Example 76, 5-(3-Bromobenzyloxy)quinazoline-2,4-diamine]
51 | > 6.00 |  | Nc1nc(N)c2c(OCc3cc(Cl)ccc3CO)cccc2n1 [Example 89, [4-Chloro-2-(2,4-diamino-quinazolin-5-yloxymethyl)-phenyl]-methanol hydrochloride]
52 | 5.30 to 6.00 |  | CC(CC(O)(c1ccc(Cl)cc1)c1ccc(Cl)cc1)Oc1cccc2nc(N)nc(N)c12 (stereo not shown) [Example 168, 1,1-Bis-(4-chlorophenyl)-3-(2,4-diaminoquinazolin-5-yloxy)butan-1-ol]
